Experimental data taken from patent US20150038543A1, “ANTI-GLYCATION PROPERTIES OF OXINDOLE DERIVATIVES” (priority 2013, published 2015).
“And” between values parts separate entries of the source, which are not always exact repeats. Identical values can stand only once. Like-named read-outs stand apart in the source and are kept apart here.

Target: T1, BSA-MG glycation model (bovine serum albumin + methylglyoxal) (Bos taurus, UniProt P02769)
T1 construct: purchased Merck Marker Pvt; Ltd. (Germany)
Assay: in vitro BSA-MG glycation model (fluorescence of AGE formation)
Format: biochemical
Conditions: for activity against the protein glycation (in words): in vitro protein glycation, compared with standard rutin
Method: Bovine serum albumin (BSA) was purchased from Merck Marker Pvt. Ltd. (Germany), rutin and methylglyoxal (MG) (40% aqueous solution) were from Sigma Aldrich (Japan), sodium dihydrogen phosphate (NaH2PO4), disodium hydrogen phosphate (Na2HPO4) and sodium azide (NaN3) were purchased from Scharlau Chemie, S. A. (Spain), while dimethyl sulphoxide (DMSO) was purchased from Fischer Scientific (UK).
The total reaction volume of the assay was 200 μL, having final concentrations of 10 mg/mL BSA, 14 mM methylglyoxal, and 1 mM test compounds. 10 mg/mL solution of BSA and 14 mM methylglyoxal was prepared in 0.1 M phosphate buffer (pH 7.4), containing sodium azide (NaN3) (30 mM) as antimicrobial agent, while 1 mM solutions of test compounds were prepared in the DMSO. Assay was performed in triplicate. Each reaction mixtures were comprised of 50 μL BSA, 50 μL methylglyoxal, 20 μL test compound and 80 μL phosphate buffer (pH 7.4). The reaction mixture was incubated under aseptic conditions at 37° C. for 9 days.
After completion of nine days of incubation, each sample was examined for the development of specific fluorescence (excitation 330 nm; emission 420 nm) against blank on a microtitre plate reader (SpectraMax M2, Molecular Devices, CA, USA). The percent inhibition of AGE formation by the test sample versus control was calculated by using the following formula:
% Inhibition=(1−Fluorescence of test sample/Fluorescence of the control)×100
The IC50 (i.e. the concentration of test samples that inhibit the process of glycation to 50%) was determined by monitoring the effect of various concentrations (ranges from 1000-50 μM) of test compounds. The IC50 values were calculated by using EZ-FIT Enzyme Kinetics Program (Perrella Scientific Inc., Amherst, USA). The antiglycation potential of test compounds was compared with rutin, which was used as standard inhibitor.

[1] = BSA 10 mg/mL, methylglyoxal 14 mM, pH 7.4, 37° C., 9 days, test concentrations 1000-50 μM, triplicate, NA = not active, read-out: Antiglycation Activity IC50 ± SEM
[2] = read-out: % inhibition against BSA-MG glycation model, 1 mM test compound, BSA 10 mg/mL, methylglyoxal 14 mM, 37° C., 9 days
[3] = Antiglycation Activity IC50 ± SEM, BSA 10 mg/mL, methylglyoxal 14 mM, pH 7.4, 37° C., 9 days, test concentrations 1000-50 μM, triplicate, NA = not active
[4] = 1 mM test compound, BSA 10 mg/mL, methylglyoxal 14 mM, 37° C., 9 days, read-out: % inhibition against BSA-MG glycation model

T1 sequence (P02769 25-607): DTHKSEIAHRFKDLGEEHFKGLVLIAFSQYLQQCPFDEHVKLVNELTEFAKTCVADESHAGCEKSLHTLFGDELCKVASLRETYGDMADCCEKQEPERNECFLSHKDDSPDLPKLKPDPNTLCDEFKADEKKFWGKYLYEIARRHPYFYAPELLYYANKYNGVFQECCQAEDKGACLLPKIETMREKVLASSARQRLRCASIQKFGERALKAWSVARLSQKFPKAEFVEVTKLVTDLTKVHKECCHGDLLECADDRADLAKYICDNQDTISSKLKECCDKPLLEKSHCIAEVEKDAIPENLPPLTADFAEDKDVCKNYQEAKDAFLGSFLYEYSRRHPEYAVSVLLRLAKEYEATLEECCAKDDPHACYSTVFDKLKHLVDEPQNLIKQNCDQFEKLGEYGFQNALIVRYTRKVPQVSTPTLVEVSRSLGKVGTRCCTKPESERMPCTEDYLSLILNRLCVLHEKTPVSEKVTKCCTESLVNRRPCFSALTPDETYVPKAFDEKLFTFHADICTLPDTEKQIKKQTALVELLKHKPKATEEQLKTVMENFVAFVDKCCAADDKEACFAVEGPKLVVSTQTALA

Row | SMILES | inhibition at 1000 µM [2] | IC50 [3] | further results
1 | O=C1Nc2ccccc2/C1=C\c1cccc(O)c1 [Compound 1, 3-[(E)-(3-hydroxyphenyl)methylidene]-1,3-dihydro-2H-indol-2-one] | – | – | IC50 [1]: 282 µM and 194 to 455 µM; activity against the protein glycation (in words): potent activity
2 | O=C1Nc2ccccc2/C1=C\c1cccc2ccccc12 [Compound 2, 3-[(E)-1-naphthylmethylidene]-1,3-dihydro-2H-indol-2-one] | < 50% | – | IC50 (bovine, 9 days, pH 7.4): 194 to 455 µM
3 | CCOc1cccc(/C=C2/C(=O)Nc3ccccc32)c1O [Compound 3, 3-[(E)-(3-ethoxy-2-hydroxyphenyl)methylidene]-1,3-dihydro-2H-indol-2-one] | – | 268 µM and 194 to 455 µM | activity against the protein glycation (in words): potent activity
4 | O=C1Nc2ccccc2/C1=C\c1c2ccccc2cc2ccccc12 [Compound 4, 3-[(E)-9-anthrylmethylidene]-1,3-dihydro-2H-indol-2-one] | – | 456 µM and 194 to 455 µM | –
5 | O=C1Nc2ccccc2/C1=C\c1ccc(O)cc1 [Compound 5, 3-[(E)-(4-hydroxyphenyl)methylidene]-1,3-dihydro-2H-indol-2-one] | – | – | inhibition at 1000 µM [4]: < 50%
6 | CCOc1ccc(/C=C2/C(=O)Nc3ccccc32)cc1 [Compound 6, 3-[(E)-(4-ethoxyphenyl)methylidene]-1,3-dihydro-2H-indol-2-one] | – | – | inhibition at 1000 µM [4]: < 50%
7 | COc1ccccc1/C=C1/C(=O)Nc2ccccc21 [Compound 7, 3-[(E)-(2-methoxyphenyl)methylidene]-1,3-dihydro-2H-indol-2-one] | < 50% | – | IC50 (bovine, 9 days, pH 7.4): 194 to 455 µM
8 | O=C1Nc2ccccc2/C1=C\c1ccc(F)cc1 [Compound 8, 3-[(E)-(4-fluorophenyl)methylidene]-1,3-dihydro-2H-indol-2-one] | – | 211 ± 4.1 µM | activity against the protein glycation (in words): potent activity
9 | O=C1Nc2ccccc2/C1=C\c1ccccc1F [Compound 9, 3-[(E)-(2-fluorophenyl)methylidene]-1,3-dihydro-2H-indol-2-one] | < 50% | – | –
10 | CSc1ccc(/C=C2/C(=O)Nc3ccccc32)cc1 [Compound 10, 3-[(E)-(4-methylsulfanylphenyl)methylidene]-1,3-dihydro-2H-indol-2-one] | < 50% | – | –
11 | O=C1Nc2ccccc2/C1=C\c1ccc([N+](=O)[O-])cc1 [Compound 15, 3-[(E)-(4-nitrophenyl)methylidene]-1,3-dihydro-2H-indol-2-one] | – | – | inhibition at 1000 µM [4]: < 50%
12 | O=C1Nc2ccccc2/C1=C\c1cccc([N+](=O)[O-])c1 [Compound 17, 3-[(E)-(3-nitrophenyl)methylidene]-1,3-dihydro-2H-indol-2-one] | < 50% | – | –
13 | O=C1Nc2ccccc2/C1=C\c1ccccc1O [Compound 20, 3-[(E)-(2-hydroxyphenyl)methylidene]-1,3-dihydro-2H-indol-2-one] | – | – | IC50 [1]: 285 µM and 194 to 455 µM; activity against the protein glycation (in words): potent activity
14 | O=C1Nc2ccccc2/C1=C\c1ccc(Cc2ccccc2)cc1 [Compound 21, 3-[(E)-(4-benzylphenyl)methylidene]-1,3-dihydro-2H-indol-2-one] | < 50% | – | –
15 | C[C@@H]1O[C@@H](OC[C@H]2O[C@@H](Oc3c(-c4ccc(O)c(O)c4)oc4cc(O)cc(O)c4c3=O)[C@H](O)[C@@H](O)[C@@H]2O)[C@H](O)[C@H](O)[C@H]1O [Rutin, reference compound] | – | – | IC50 [1]: 294 µM

The next lines start with results.

Row | inhibition at 1000 µM [2] | IC50 [3] | SMILES | further results
16 | – | 374 µM and 194 to 455 µM | COc1cccc(/C=C2/C(=O)Nc3ccccc32)c1O [Compound 11, 3-[(E)-(2-hydroxy-3-methoxyphenyl)methylidene]-1,3-dihydro-2H-indol-2-one] | –
17 | < 50% | – | O=C1Nc2ccccc2/C1=C\c1ccc(Cl)c(Cl)c1 [Compound 12, 3-[(E)-(3,4-dichlorophenyl)methylidene]-1,3-dihydro-2H-indol-2-one] | –
18 | – | 194 µM and 194 to 455 µM | Cc1ccc(O)c(/C=C2/C(=O)Nc3ccccc32)c1 [Compound 13, 3-[(E)-(2-hydroxy-5-methylphenyl)methylidene]-1,3-dihydro-2H-indol-2-one] | activity against the protein glycation (in words): potent activity
19 | – | 151 µM and 150 µM | O=C1Nc2ccccc2/C1=C\c1cccc(Cl)c1 [Compound 14, 3-[(E)-(3-chlorophenyl)methylidene]-1,3-dihydro-2H-indol-2-one] | activity against the protein glycation (in words): potent activity
20 | < 50% | – | O=C1Nc2ccccc2/C1=C\c1cc(Cl)ccc1O [Compound 16, 3-[(E)-(5-chloro-2-hydroxyphenyl)methylidene]-1,3-dihydro-2H-indol-2-one] | –
21 | – | 856.7 ± 2.4 µM | O=C1Nc2ccccc2/C1=C\c1ccc(Cl)cc1Cl [Compound 18, 3-[(E)-(2,4-dichlorophenyl)methylidene]-1,3-dihydro-2H-indol-2-one] | –
